Measurements reported in patent US20240239854A1, “ANTIMICROBIAL PEPTIDES AND MODIFICATIONS THEREOF” (Donald Danforth Plant Science Center, priority 2022, published 2024).
≈ marks a conversion by molar mass, not a printed value. Where two headings read alike, the source gives them in different places. Residues, ends and D or L forms follow the SMILES beside them.

Legend:
P. capsici [1] = assay: Antifungal MIC assay in SFM culture media (Example 1); format: cell-based; conditions: in vitro, low cationic conditions
Coccidioides sp. = format: cell-based; conditions: Table 8
Candida glabrata = assay: Antifungal MIC in RPMI medium; conditions: RPMI medium rich in cations
[2] = system: Enterotoxigenic E. coli-F4; assay: Antibacterial growth inhibition in Mueller-Hinton media, OD600 (Example 3); format: cell-based; conditions: Table 15, MH medium
Procedure: Salmonella Typhimurium var. Copenhagen, Enterotoxigenic E. coli-F4 and Listeria monocytogens (F5244) strains were grown overnight on an LB agar plate at 37_C. A small number of bacteria was scraped from the plate and added to Mueller-Hinton (MH) growth media and grown to log phase. Cells were diluted to 1-3×10^6 CFU/mL and 50 μl were added to each well in a polypropylene 96-well plate. Synthesized peptide GMA4C_V1A was diluted into 0.2% BSA, 0.0100 acetic acid solution and added to the concentration of 0.2, 0.4, 0.80, 1.6, 3.25, 7.5, 15, 30 and 60 and 120 μM. Then, 50 μl of each peptide solution was added to 50 μl of bacterial cells. Plates were parafilmed and incubated at 37° C. overnight. The concentrations at which bacterial growth inhibition was determined based on the OD600 nm value at each concentration relative to the OD600 nm value of MH medium alone and that of bacterial growth in MH medium without any peptide.

Candida auris [3] = assay: MIC, CLSI M27/M38, half-strength potato dextrose broth (Example 2); format: cell-based; conditions: Table 8
Aspergillus fumigatus = assay: as above; format: cell-based; conditions: Table 8; Aspergillus fumigatus AF293
F. oxysporum [4] = assay: Antifungal MIC assay in SFM culture media (Example 1); format: cell-based; conditions: for Antifungal activity relative to the wild-type GMA4C_AC control: in vitro, low cationic conditions, F. oxysporum
Candida albicans = assay: MIC, CLSI M27/M38, half-strength potato dextrose broth (Example 2); format: cell-based; conditions: Table 8
Candida auris [5] = assay: Antifungal MIC in RPMI medium; conditions: RPMI medium rich in cations
B. cinerea = conditions: for Antifungal activity relative to the wild-type GMA4C_AC control: in vitro, low cationic conditions
[6] = system: Listeria monocytogens (F5244); assay: Antibacterial growth inhibition in Mueller-Hinton media, OD600 (Example 3); format: cell-based; conditions: Table 15; L. monocytogenes F5244; MH medium
P. capsici [7] = assay: In planta assay on tomato leaves (Example 1); format: in vivo; conditions: applied on tomato leaves
Source text: Antifungal activity in planta.

C. parapsilosis = assay: MIC, CLSI M27/M38, half-strength potato dextrose broth (Example 2); format: cell-based, Candida parapsilosis; conditions: Table 8; C. parapsilosis ATCC 22019
Procedure: (§1) MICs were determined at 24-72 hours.

F. graminearum = conditions: in vitro, low cationic conditions; F. graminearum
[8] = system: Salmonella Typhimurium var. Copenhagen; assay: Antibacterial growth inhibition in Mueller-Hinton media, OD600 (Example 3); format: cell-based; conditions: Table 15; S. Typhimurium var. Copenhagen; MH medium
F. solani = assay: MIC, CLSI M27/M38, half-strength potato dextrose broth (Example 2); format: cell-based; conditions: Table 8; Fusarium F4 (F. solani)
Procedure: as §1

F. oxysporum [9] = assay: as above; format: cell-based; conditions: Table 8
Procedure: as §1

Structure (SMILES) | Antifungal activity relative to the wild-type GMA4C_AC control (P. capsici [1]) | MIC (μg/ml) 100% (Coccidioides sp.; Coccidioides sp. Cocci 1) | MIC (μg/ml) 100% (Coccidioides sp.; Coccidioides sp. Cocci2) | MIC (μg/ml) 100% (Coccidioides sp.; Coccidioides sp. DI17-143) | Antifungal activity against C. glabrata (Candida glabrata) | MIC (μg/ml) 100% (Candida auris [3]; Candida auris DI17-46) | MIC (μg/ml) 100% (Candida auris [3]; Candida auris DI17-47) | MIC (μg/ml) 100% (Candida auris [3]; Candida auris DI17-48) | MIC (μg/ml) 100% (Aspergillus fumigatus) | Antifungal activity relative to the wild-type GMA4C_AC control (F. oxysporum [4]) | MIC (μg/ml) 100% (Candida albicans; Candida albicans ATCC 90028) | MIC (μg/ml) 100% (Candida albicans; Candida albicans CA3) | MIC (μg/ml) 100% (Candida albicans; Candida albicans SC5314) | Antifungal activity against C. auris (Candida auris [5]) | Antifungal activity relative to the wild-type GMA4C_AC control (B. cinerea; B. cinerea) | MIC (μg/ml) 100% (C. parapsilosis) | Antifungal activity relative to the wild-type GMA4C_AC control (F. graminearum) | also measured
CC[C@H](C)[C@H](NC(=O)[C@H](CCCNC(=N)N)NC(=O)[C@@H](NC(=O)[C@H](CS)NC(=O)[C@H](Cc1ccccc1)NC(=O)[C@H](CS)NC(=O)[C@H](CCCNC(=N)N)NC(=O)[C@H](CCCNC(=N)N)NC(=O)[C@H](CCCNC(=N)N)NC(=O)[C@H](Cc1ccccc1)NC(=O)CNC(=O)[C@H](CCCCN)NC(=O)[C@H](CS)NC(=O)[C@H](CCCNC(=N)N)NC(=O)CNC(=O)CN)[C@@H](C)O)C(=O)N[C@@H](CS)C(N)=O [GMA4C_V1A] (H-GGRCKGFRRRCFCTRIC-NH2; N-terminus assumed) | equivalent | 8 µg/mL (≈ 3.96 µM) | 4 µg/mL (≈ 1.98 µM) | 8 µg/mL (≈ 3.96 µM) | show antifungal activity | 8 µg/mL (≈ 3.96 µM) | 8 µg/mL (≈ 3.96 µM) | 8 µg/mL (≈ 3.96 µM) | 32 µg/mL (≈ 15.9 µM) | equivalent | 8 µg/mL (≈ 3.96 µM) | 8 µg/mL (≈ 3.96 µM) | 8 µg/mL (≈ 3.96 µM) | show antifungal activity | equivalent | 4 µg/mL (≈ 1.98 µM) | equivalent | Concentrations at which growth inhibition was observed [2]: 7.5 to 60 µM; F. oxysporum MIC (F. oxysporum [4]; Table 2, SFM culture media): 6 μuM; Potency relative to GMA4C_AC in presence of cations (B. cinerea; B. cinerea, 100 mM NaCl or 100 mM KCl): 2 fold; Fungal growth inhibition at 6 μM (B. cinerea; B. cinerea, in presence of 2 mM CaCl2, peptide 6 μM): inhibit fungal growth; Concentrations at which growth inhibition was observed [6]: 15 to 30 µM; Reduction of disease symptoms caused by P. capsici (P. capsici [7]): more effective; Concentrations at which growth inhibition was observed [8]: 15 to 60 µM
CC[C@H](C)[C@H](NC(=O)[C@H](CCCNC(=N)N)NC(=O)[C@@H](NC(=O)[C@H](CS)NC(=O)[C@H](Cc1ccccc1)NC(=O)[C@H](CS)NC(=O)[C@H](CCCNC(=N)N)NC(=O)[C@H](CCCNC(=N)N)NC(=O)[C@H](CCCNC(=N)N)NC(=O)[C@H](Cc1ccccc1)NC(=O)CNC(=O)[C@H](CCCNC(=N)N)NC(=O)[C@H](CS)NC(=O)[C@H](CCCNC(=N)N)NC(=O)CNC(=O)CN)[C@@H](C)O)C(=O)N[C@@H](CS)C(N)=O [GMA4C_V2A] (H-GGRCRGFRRRCFCTRIC-NH2; N-terminus assumed) |  | 8 µg/mL (≈ 3.91 µM) | 16 µg/mL (≈ 7.82 µM) | 16 µg/mL (≈ 7.82 µM) |  | 16 µg/mL (≈ 7.82 µM) | 16 µg/mL (≈ 7.82 µM) | 16 µg/mL (≈ 7.82 µM) | 32 µg/mL (≈ 15.6 µM) |  | 16 µg/mL (≈ 7.82 µM) | 16 µg/mL (≈ 7.82 µM) | 16 µg/mL (≈ 7.82 µM) |  | two-fold reduction | 8 µg/mL (≈ 3.91 µM) | two-fold reduction | MIC (μg/ml) 100% (F. solani): 8 µg/mL (≈ 3.91 µM); MIC (μg/ml) 100% (F. oxysporum [9]; Fusarium F1 (F. oxysporum)): 8 µg/mL (≈ 3.91 µM); MIC (μg/ml) 100% (F. oxysporum [9]; Fusarium F2 (F. oxysporum)): 16 µg/mL (≈ 7.82 µM)
CC[C@H](C)[C@H](NC(=O)[C@H](CCCNC(=N)N)NC(=O)[C@@H](NC(=O)[C@@H](NC(=O)[C@H](Cc1ccccc1)NC(=O)[C@@H](NC(=O)[C@H](CCCNC(=N)N)NC(=O)[C@H](CCCNC(=N)N)NC(=O)[C@H](CCCNC(=N)N)NC(=O)[C@H](Cc1ccccc1)NC(=O)CNC(=O)[C@H](CCCNC(=N)N)NC(=O)[C@H](CS)NC(=O)[C@H](CCCNC(=N)N)NC(=O)CNC(=O)CN)C(C)C)C(C)C)[C@@H](C)O)C(=O)N[C@@H](CS)C(N)=O [GMA4C_V3A] (H-GGRCRGFRRRVFVTRIC-NH2; N-terminus assumed) | equivalent |  |  |  | show antifungal activity |  |  |  |  | equivalent |  |  |  | show antifungal activity | equivalent |  | equivalent | B. cinerea MIC (B. cinerea): 1.5 µM; MIC (μM) Botrytis cinerea (B. cinerea): 3 µM (≈ 6.12 µg/mL); MIC Values (μM) against B. cinerea (B. cinerea): 3 µM (≈ 6.12 µg/mL); SFM + 2 mM CaCl2 MIC (B. cinerea): >6 µM; SFM + 100 mM KCl MIC (B. cinerea): >6 µM; SFM + 100 mM NaCl MIC (B. cinerea): 1.5 to 3 µM; SFM MIC (B. cinerea): 3 µM
